Tested on: MCF7
Assay: Cytotoxicity against human MCF7 cells assessed as growth inhibition after 96 hrs by MTT assay
Type: functional, cell-based

Q: How did the IC50 turn out when COc1ccc(-c2c3cc(OC)c(OC)cc3cc3c2ncn3C)cc1 was run?
A: 99.8 µM

Q: How did the IC50 turn out when COc1ccc(-c2c3cc(OC)c(OC)c(OC)c3cc3c2nc(N)n3C)cc1 was run?
A: 4.94 µM

Q: Which IC50 does the source give for COc1ccc(-c2c3nc(N)n(C)c3cc3cc(OC)c(OC)c(OC)c23)cc1 here?
A: 19.5 µM

Q: COc1ccc(-c2c3cc(OCc4ccccc4)c(OC)cc3cc3c2ncn3C)cc1 was tested. Which IC50 did it give?
A: 76.9 µM

Q: With COc1ccc(-c2c3cc(OC)c(OC)c(OC)c3cc3c2ncn3C)cc1 as the compound, how does the IC50 read?
A: 68.2 µM

Q: With COc1ccc(Cc2c(C(OC)c3ccc(OC)cc3)nc(N)n2C)cc1 (stereo unspecified) as the compound, how does the IC50 read?
A: 22.7 µM

Q: Which IC50 does the source give for CN1C(=O)N=C(Nc2nc(Cc3ccc4c(c3)OCO4)cn2C)C1=O [CLATHRIDINE] here?
A: > 100 µM

Q: For COc1ccc(-c2c3cc(OC)c(OC)cc3cc3c2nc(N)n3C)cc1, which IC50 is on record?
A: 4.4 µM

Q: For COC1=C(OC)C(=O)c2c(cc3c([nH]c(=O)n3C)c2-c2ccc(OC)cc2)C1=O, which IC50 is on record?
A: 43.8 µM

Q: How did the IC50 turn out when COc1ccc(-c2c3ncn(C)c3cc3cc(OC)c(OC)c(OC)c23)cc1 was run?
A: > 100 µM

Q: How did the IC50 turn out when COC1=C(OC)C(=O)c2c(cc3c(ncn3C)c2-c2ccc(OC)cc2)C1=O was run?
A: 92 µM

Q: Which IC50 does the source give for COc1ccc(-c2c3cc(O)c(OC)cc3cc3c2ncn3C)cc1 here?
A: 41.1 µM

Q: Cn1cnc(Cc2ccc3c(c2)OCO3)c1 was tested. Which IC50 did it give?
A: > 100 µM

Q: COc1ccc(Cc2nc(NC3=NC(=O)N(C)C3=O)n(C)c2Cc2ccc(OC)cc2)cc1 was tested. Which IC50 did it give?
A: 5.08 µM

Q: With COc1ccc(-c2c3[nH]c(=O)n(C)c3cc3cc(OC)c(OC)c(OC)c23)cc1 as the compound, how does the IC50 read?
A: 91.9 µM

Q: For COc1ccc(Cn2cc(Cc3ccc(OC)c(OC)c3)nc2N)cc1 [ISONAAMINE C], which IC50 is on record?
A: 28 µM

Q: COC1=C(OC)C(=O)c2c(cc3c(nc(N)n3C)c2-c2ccc(OC)cc2)C1=O was tested. Which IC50 did it give?
A: > 100 µM

Q: Cn1cc(Cc2ccc3c(c2)OCO3)nc1N was tested. Which IC50 did it give?
A: 23.4 µM

Q: Which IC50 does the source give for COc1ccc(Cn2cc(Cc3ccc(OC)c(OC)c3)nc2/N=C2/NC(=O)N(C)C2=O)cc1 [ISONAAMIDINE E] here?
A: 5.78 µM

Q: With COc1ccc(-c2c3cc(O)c(OC)cc3cc3c2[nH]c(=N)n3C)cc1 [KEALIININE A] as the compound, how does the IC50 read?
A: > 100 µM

Q: With COc1ccc(Cc2nc(N)n(C)c2Cc2ccc(OC)cc2)cc1 as the compound, how does the IC50 read?
A: 28.8 µM
